Test results: patent publication US6355799B1, “Substituted benzene compounds, process for their preparation, and herbicidal and defoliant compositions containing them” (ISK Americas Incorporated, priority 1997, dated 2002)

Assays:
Format in all cases: in vivo
[1] = tested on: redroot pigweed (Amaranthus retroflexus, AMARE); experiment: Pre-emerge test, greenhouse herbicide activity screening; conditions: pre-emerge, 14 days after application, scale 0-100
Procedure, shortened: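 Plants grown in 10 cm pots of sandy loam mix received acetone-dissolved compounds through a moving flat-fan nozzle. Doses ranged from 15 to 1000 g ai/ha. Pre-emerge pots were seeded one day earlier, post-emerge pots 8–21 days earlier. Fourteen days on, each pot was graded 0–100 for damage.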

[2] = tested on: barnyardgrass (Echinochloa crus-galli, ECHCG); experiment: as above; conditions: pre-emerge, 14 days after application, scale 0-100
Procedure, shortened: (§1)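 Visual ratings on a 0-100 scale (0 no damage, 100 all plants dead) were taken at 14 days after treatment. Rates of 15-1000 g ai/ha in acetone, 187 l/ha, were sprayed onto soil one day after planting (pre-emerge) or onto 2-3 leaf plants with 0.25% v/v surfactant (post-emerge).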

[3] = tested on: green foxtail (Setaria viridis, SETVI); experiment: as above; conditions: pre-emerge, 14 days after application, scale 0-100
Procedure, shortened: as §1

[4] = tested on: ivyleaf morningglory (Ipomoea hederacea, IPOHE); experiment: as above; conditions: pre-emerge, 14 days after application, scale 0-100
Procedure, shortened: as §1

[5] = tested on: johnsongrass (Sorghum halepense, SORHA); experiment: as above; conditions: pre-emerge, 14 days after application, scale 0-100
Procedure, shortened: as §1

[6] = tested on: lambsquarters (Chenopodium album, CHEAL); experiment: as above; conditions: pre-emerge, 14 days after application, scale 0-100
Procedure, shortened: as §1

[7] = tested on: large crabgrass (Digitaria sanguinalis, DIGSA); experiment: as above; conditions: pre-emerge, 14 days after application, scale 0-100
Procedure, shortened: as §1

[8] = tested on: sicklepod (Cassia obtusifolia, CASOB); experiment: as above; conditions: pre-emerge, 14 days after application, scale 0-100
Procedure, shortened: as §1

[9] = tested on: velvetleaf (Abutilon theophrasti, ABUTH); experiment: as above; conditions: pre-emerge, 14 days after application, scale 0-100
Procedure, shortened: as §1

[10] = tested on: field corn (Zea mays L., var. Dekalb 535, CORN); experiment: Pre-emerge test, crop safety; conditions: pre-emerge, 14 days after application, scale 0-100
Procedure, shortened: (§2)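 Sandy loam pots; pre-emerge: sown 1 d pre-spray, surface-watered after, then bottom-watered. Post-emerge: sown 8–21 d before, 2–3 leaf stage, + 0.25% v/v NIS, bottom-watered. Acetone, 187 l/ha track spray, 15–1000 g ai/ha. 0–100 injury score, day 14.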

[11] = tested on: upland rice (Oryza sp., var. Tebonnet, RICE); experiment: Pre-emerge test, crop safety; conditions: pre-emerge, 14 days after application, scale 0-100
Procedure, shortened: as §2

[12] = tested on: barnyardgrass (Echinochloa crus-galli, ECHCG); experiment: Post-emerge test, greenhouse herbicide activity screening; conditions: post-emerge, 14 days after application, rating scale 0-100
Procedure, shortened: (§3)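 Compounds in acetone were track-sprayed at 15-1000 g ai/ha (187 l/ha) on sandy loam pots: pre-emerge one day after seeding, post-emerge at 2-3 leaf stage with 0.25% v/v non-ionic surfactant. Phytotoxicity was rated 14 days later on a 0 (no damage) to 100 (complete death) scale.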

[13] = tested on: common ragweed (Ambrosia artemisizfolia L., AMBEL); experiment: as above; conditions: post-emerge, 14 days after application, rating scale 0-100
Procedure, shortened: as §3

[14] = tested on: green foxtail (Setaria viridis, SETVI); experiment: as above; conditions: post-emerge, 14 days after application, rating scale 0-100
Procedure, shortened: as §3

[15] = tested on: ivyleaf morningglory (Ipomoea hederacea, IPOHE); experiment: as above; conditions: post-emerge, 14 days after application, rating scale 0-100
Procedure, shortened: as §3

[16] = tested on: johnsongrass (Sorghum halepense, SORHA); experiment: as above; conditions: post-emerge, 14 days after application, rating scale 0-100
Procedure, shortened: as §3

[17] = tested on: lambsquarters (Chenopodium album, CHEAL); experiment: as above; conditions: post-emerge, 14 days after application, rating scale 0-100
Procedure, shortened: as §3

[18] = tested on: large crabgrass (Digitaria sanguinalis, DIGSA); experiment: as above; conditions: post-emerge, 14 days after application, rating scale 0-100
Procedure, shortened: as §3

[19] = tested on: redroot pigweed (Amaranthus retroflexus, AMARE); experiment: as above; conditions: post-emerge, 14 days after application, rating scale 0-100
Procedure, shortened: as §3

[20] = tested on: sicklepod (Cassia obtusifolia, CASOB); experiment: as above; conditions: post-emerge, 14 days after application, rating scale 0-100
Procedure, shortened: as §3

[21] = tested on: velvetleaf (Abutilon theophrasti, ABUTH); experiment: as above; conditions: post-emerge, 14 days after application, rating scale 0-100
Procedure, shortened: as §3

[22] = tested on: field corn (Zea mays L., var. Dekalb 535, CORN); experiment: Post-emerge test, crop safety; conditions: post-emerge, 14 days after application, rating scale 0-100
Procedure, shortened: as §1

[23] = tested on: upland rice (Oryza sp., var. Tebonnet, RICE); experiment: Post-emerge test, crop safety; conditions: post-emerge, 14 days after application, rating scale 0-100
Procedure, shortened: as §1

SMILES: CCSCC(=O)Nc1c(OC)c(Cl)cc(F)c1-n1c(=O)cc(C(F)(F)F)n(C)c1=O [2-172]
- phytotoxicity rating AMARE ([1]; 63 g ai/ha): 70
- phytotoxicity rating AMARE ([1]; 250 g ai/ha): 100
- phytotoxicity rating ECHCG ([2]; 63 g ai/ha): 0
- phytotoxicity rating ECHCG ([2]; 250 g ai/ha): 60
- phytotoxicity rating SETVI ([3]; 63 g ai/ha): 20
- phytotoxicity rating SETVI ([3]; 250 g ai/ha): 65
- phytotoxicity rating IPOHE ([4]; 63 g ai/ha): 60
- phytotoxicity rating IPOHE ([4]; 250 g ai/ha): 95
- phytotoxicity rating SORHA ([5]; 63 g ai/ha): 0
- phytotoxicity rating SORHA ([5]; 250 g ai/ha): 40
- phytotoxicity rating CHEAL ([6]; 63 g ai/ha): 30
- phytotoxicity rating CHEAL ([6]; 250 g ai/ha): 100
- phytotoxicity rating DIGSA ([7]; 63 g ai/ha): 20
- phytotoxicity rating DIGSA ([7]; 250 g ai/ha): 100
- phytotoxicity rating CASOB ([8]; 63 g ai/ha): 20
- phytotoxicity rating CASOB ([8]; 250 g ai/ha): 80
- phytotoxicity rating ABUTH ([9]; 63 g ai/ha): 90
- phytotoxicity rating ABUTH ([9]; 250 g ai/ha): 100
- phytotoxicity rating CORN (crop damage) ([10]; 63 g ai/ha): 0
- phytotoxicity rating CORN (crop damage) ([10]; 250 g ai/ha): 10
- phytotoxicity rating RICE (crop damage) ([11]; 63 g ai/ha): 10
- phytotoxicity rating RICE (crop damage) ([11]; 250 g ai/ha): 50
- ECHCG phytotoxicity rating ([12]; 63 g ai/ha): 0
- ECHCG phytotoxicity rating ([12]; 250 g ai/ha): 0
- AMBEL phytotoxicity rating ([13]; 63 g ai/ha): 30
- AMBEL phytotoxicity rating ([13]; 250 g ai/ha): 80
- SETVI phytotoxicity rating ([14]; 63 g ai/ha): 0
- SETVI phytotoxicity rating ([14]; 250 g ai/ha): 10
- IPOHE phytotoxicity rating ([15]; 63 g ai/ha): 90
- IPOHE phytotoxicity rating ([15]; 250 g ai/ha): 100
- SORHA phytotoxicity rating ([16]; 63 g ai/ha): 0
- SORHA phytotoxicity rating ([16]; 250 g ai/ha): 0
- CHEAL phytotoxicity rating ([17]; 63 g ai/ha): 35
- CHEAL phytotoxicity rating ([17]; 250 g ai/ha): 60
- DIGSA phytotoxicity rating ([18]; 63 g ai/ha): 0
- DIGSA phytotoxicity rating ([18]; 250 g ai/ha): 0
- AMARE phytotoxicity rating ([19]; 63 g ai/ha): 60
- AMARE phytotoxicity rating ([19]; 250 g ai/ha): 60
- CASOB phytotoxicity rating ([20]; 63 g ai/ha): 50
- CASOB phytotoxicity rating ([20]; 250 g ai/ha): 90
- ABUTH phytotoxicity rating ([21]; 63 g ai/ha): 60
- ABUTH phytotoxicity rating ([21]; 250 g ai/ha): 100
- CORN phytotoxicity rating (crop damage) ([22]; 63 g ai/ha): 5
- CORN phytotoxicity rating (crop damage) ([22]; 250 g ai/ha): 10
- RICE phytotoxicity rating (crop damage) ([23]; 63 g ai/ha): 0
- RICE phytotoxicity rating (crop damage) ([23]; 250 g ai/ha): 10

SMILES: COc1c(Cl)cc(F)c(-n2c(=O)cc(C(F)(F)F)n(C)c2=O)c1NC(=O)CSC(C)C [2-173]
- phytotoxicity rating AMARE ([1]; 63 g ai/ha): 30
- phytotoxicity rating AMARE ([1]; 250 g ai/ha): 100
- phytotoxicity rating ECHCG ([2]; 63 g ai/ha): 0
- phytotoxicity rating ECHCG ([2]; 250 g ai/ha): 20
- phytotoxicity rating SETVI ([3]; 63 g ai/ha): 40
- phytotoxicity rating SETVI ([3]; 250 g ai/ha): 80
- phytotoxicity rating IPOHE ([4]; 63 g ai/ha): 0
- phytotoxicity rating IPOHE ([4]; 250 g ai/ha): 40
- phytotoxicity rating SORHA ([5]; 63 g ai/ha): 0
- phytotoxicity rating SORHA ([5]; 250 g ai/ha): 10
- phytotoxicity rating CHEAL ([6]; 63 g ai/ha): 90
- phytotoxicity rating CHEAL ([6]; 250 g ai/ha): 100
- phytotoxicity rating DIGSA ([7]; 63 g ai/ha): 30
- phytotoxicity rating DIGSA ([7]; 250 g ai/ha): 80
- phytotoxicity rating CASOB ([8]; 63 g ai/ha): 30
- phytotoxicity rating CASOB ([8]; 250 g ai/ha): 70
- phytotoxicity rating ABUTH ([9]; 63 g ai/ha): 95
- phytotoxicity rating ABUTH ([9]; 250 g ai/ha): 100
- phytotoxicity rating CORN (crop damage) ([10]; 63 g ai/ha): 0
- phytotoxicity rating CORN (crop damage) ([10]; 250 g ai/ha): 20
- phytotoxicity rating RICE (crop damage) ([11]; 63 g ai/ha): 0
- phytotoxicity rating RICE (crop damage) ([11]; 250 g ai/ha): 50
- ECHCG phytotoxicity rating ([12]; 63 g ai/ha): 0
- ECHCG phytotoxicity rating ([12]; 250 g ai/ha): 0
- AMBEL phytotoxicity rating ([13]; 63 g ai/ha): 30
- AMBEL phytotoxicity rating ([13]; 250 g ai/ha): 50
- SETVI phytotoxicity rating ([14]; 63 g ai/ha): 0
- SETVI phytotoxicity rating ([14]; 250 g ai/ha): 0
- IPOHE phytotoxicity rating ([15]; 63 g ai/ha): 100
- IPOHE phytotoxicity rating ([15]; 250 g ai/ha): 80
- SORHA phytotoxicity rating ([16]; 63 g ai/ha): 0
- SORHA phytotoxicity rating ([16]; 250 g ai/ha): 0
- CHEAL phytotoxicity rating ([17]; 63 g ai/ha): 40
- CHEAL phytotoxicity rating ([17]; 250 g ai/ha): 65
- DIGSA phytotoxicity rating ([18]; 63 g ai/ha): 0
- DIGSA phytotoxicity rating ([18]; 250 g ai/ha): 0
- AMARE phytotoxicity rating ([19]; 63 g ai/ha): 50
- AMARE phytotoxicity rating ([19]; 250 g ai/ha): 50
- CASOB phytotoxicity rating ([20]; 63 g ai/ha): 50
- CASOB phytotoxicity rating ([20]; 250 g ai/ha): 70
- ABUTH phytotoxicity rating ([21]; 63 g ai/ha): 60
- ABUTH phytotoxicity rating ([21]; 250 g ai/ha): 100
- CORN phytotoxicity rating (crop damage) ([22]; 63 g ai/ha): 0
- CORN phytotoxicity rating (crop damage) ([22]; 250 g ai/ha): 25
- RICE phytotoxicity rating (crop damage) ([23]; 63 g ai/ha): 0
- RICE phytotoxicity rating (crop damage) ([23]; 250 g ai/ha): 10
